Measurements: patent US9186356B2, “Methods for treating frontotemporal lobar degeneration with ubiquitinated inclusions (FTLD-U)” (Academia Sinica, priority 2011, dated 2015)

Columns and labels:
FTLD-U mice = assay: Motor function of FTLD-U mice treated with other autophagy inducers (FIG. 5); type: in vivo; details: tamoxifen 80 mg/Kg s.c. once per day one week, carbamazepine 50 mg/Kg i.p. once per day two weeks, spermidine 50 mg/Kg i.p. once per day one week
Procedure: Other autophage inducers for administration to the FTLD-U mice include tamoxifen, carbamazepine, calpastatin, minoxidial, spermidine and trehalose. […] Carbamazepine can lower inositol and IP3 levels. Calpastatin is a calpain inhibitor. Minoxidial is a K^+ATP channel opener. Spermidine can decrease ROS and increases beclin 1. The effect of trehalose is unknown. Tamoxifen (80 mg/Kg) was administered via subcutaneous injection, once per day for one week. carbamazepine (50 mg/Kg) was administered i.p. once per day for two weeks. Spermidine (50 mg/Kg) was administered i.p. once per day for one week.

ALS mice (SOD1G93A) = details: cited from earlier work

Row | Compound | motor function deficits (FTLD-U mice) | mitochondria impairment (ALS mice (SOD1G93A))
1 | NC(=O)N1c2ccccc2C=Cc2ccccc21 [carbamazepine] | rescued the motor function deficits | –
2 | CO[C@H]1C[C@@H]2CC[C@@H](C)[C@@](O)(O2)C(=O)C(=O)N2CCCC[C@H]2C(=O)O[C@H]([C@H](C)C[C@@H]2CC[C@@H](O)[C@H](OC)C2)CC(=O)[C@H](C)/C=C(\C)[C@@H](O)[C@@H](OC)C(=O)[C@H](C)C[C@H](C)/C=C/C=C/C=C/1C [rapamycin] | – | more server mitochondria impairment
3 | NCCCCNCCCN [spermidine] | rescued the motor function deficits | –
4 | CC/C(=C(\c1ccccc1)c1ccc(OCCN(C)C)cc1)c1ccccc1 [tamoxifen] | rescued the motor function deficits | –
